The record followed here is patent US7329520B2, “Fructosyl peptide oxidase and utilization thereof” (Daiichi Pure Chemicals Co., Ltd., priority 2002, dated 2008).

No end group written: not given here.

Assay [1] deals with enzyme originating from a plant belonging to the family Zingiberaceae. In words: Enzyme activity on substrates by glucosone production (substrate specificity, Km). It is filed as biochemical, Zingiber officinale. The settings on record: Lineweaver-Burk's plots; glucosone production at 37° C., pH 8.0. The protocol:
The method for determining activity of the enzyme of the present invention is exemplified by a method in which the enzyme is reacted with a substrate fructosyl peptide, to thereby produce non-fructosyl peptide, glucosone, and hydrogen peroxide, and the amount of any one of these compounds produced through the enzyme reaction is measured. Next will be described an example method of measuring the amount of glucosone produced. Hereinafter, unless otherwise specified, the substrate employed for determining activity of the enzyme of the present invention is fructosyl valyl histidine. One unit (U) of the titer of the enzyme is defined as the amount of enzyme which produces 1 μmol glucosone in one minute as measured when the substrate is fructosyl valyl histidine. […]
To the above reaction mixture, a mixture which has been prepared in advance by mixing 200 mM acetate buffer (pH 6.0) (750 μL), 4000-u/mL glucose oxidase (Toyobo Co., Ltd.) (450 μL), 0.15% 4-aminoantipyrine (300 μL), 0.3% TOOS (Dojindo Laboratories) (300 μL), 500-u/mL peroxidase (Toyobo Co., Ltd.: Type III) (300 μL), and 1% sodium azide (300 μL) is added, followed by heating for 10 minutes at 37° C. Thereafter, absorbance is measured at 550 nm. […] Thus, the amount (in micromoles) of glucosone produced in one minute is calculated, and the obtained value is used as the activity unit of the enzyme solution. […]

Assay [2] concerns enzyme originating from Zingiber officinale. As to the kind of experiment: Measurement of fructosyl peptide through glucosone, absorbance at 550 nm. Type of assay: biochemical. The settings on record: 0 to 40 μM substrate, enzyme 1.6 u/mL (30 μL), 16 hours at 37° C. The protocol: 200 mM Phosphate buffer (pH 8.0) (150 μL), purified water (360 μL), and each of aqueous fructosyl valyl histidine solutions (60 μL) having different concentrations were mixed together so that the final fructosyl valyl histidine concentrations after reaction fell between 0 and 40 μM. The reaction was mixed with a solution of the enzyme originating from Zingiber officinale (1.6 u/mL) (30 μL), and the resultant mixture was allowed to react for 16 hours at 37° C. Subsequently, a mixture which had been prepared in advance by mixing 200 mM acetate buffer (pH 6.0) (750 μL), 4000-u/mL glucose oxidase (Toyobo Co., Ltd.) (450 μL), 0.15% 4-aminoantipyrine (300 μL), 0.3% TOOS (Dojindo Laboratories) (300 μL), 500-u/mL peroxidase (Toyobo Co., Ltd.: Type III) (300 μL), and 1% sodium azide (300 μL) was added to the reaction mixture, and the resultant mixture was treated for 10 minutes at 37° C., followed by measuring absorbance at 550 nm (FIG. 7).

For assay [3], the system named is Zingiber officinale-originating enzyme. As to the kind of experiment: Hydrogen peroxide production, DA-64 color development. The conditions noted are these: lmM substrate, enzyme 0.3 u/mL, 30 minutes at 50° C., pH 8.0, DA-64/POD. Type of assay: biochemical. The protocol:
To a 50 mM phosphate buffer (pH 8.0) containing 0.5 mM DA-64 (product of Wako Pure Chemical Industries, Ltd.), 200-u/mL POD, 0.1% sodium azide, and lmM fructosyl valine or fructosyl peptide (SEQ ID NOs: 1 to 5) (all being final concentrations), a Zingiber officinale-originating enzyme solution was added in an amount of 0.3 u/mL (final concentration), and the mixture was treated for 30 minutes at 50° C. Absorbance at 700 nm was measured by employment of purified water as a control. Color development of DA-64 was observed (Table 1). Thus, hydrogen peroxide was confirmed to be produced.

In assay [4] the test system is Zingiberaceae-plant-origin crude enzyme solution. In words: Defructosylation of fructosyl peptide, analysed by capillary electrophoresis. It is filed as biochemical, Zingiber officinale. The settings on record: reaction mixture 1, 16 hours at 37° C., pH 8.0, control peak area 32 mABU×sec. The protocol:
(i) A 100 mM phosphate buffer (pH 8.0) (100 μL), a 500 μM aqueous solution (40 μL) of the N-terminal-valine fructosylated peptide having an amino acid sequence represented by SEQ ID NO: 2 (f-VHL: products of Bioquest), purified water (20 μL), and the Zingiberaceae-plant-origin crude enzyme solution (40 μL) prepared in Example 1 were mixed together, and the mixture was caused to react for 16 hours at 37° C. The reaction mixture was subjected to ultrafiltration (molecular weight: 10,000), and the filtrate was collected (reaction mixture 1). The reaction mixture 1 was analyzed through use of a capillary electrophoresis apparatus CAPI-3200 (product of Otsuka Electronics Co., Ltd) (electrophoresis buffer: 150 mM phosphate buffer (pH 2.0), voltage: 15 kV, detection wavelength: 210 nm) in terms of peak position and peak area.
As a control, purified water was added instead of the crude enzyme solution, and the resultant mixture was allowed to react under similar conditions, to thereby prepare a filtrate (control solution 1). The analysis results obtained from the control solution 1 were compared with those of the reaction mixture 1.
The fructosyl peptide employed in the enzyme reaction or control test had been mixed with corresponding non-fructosylated peptide. The presence or absence of the enzyme activity was determined through comparison of the two peaks.

Broadly, the Km is the substrate concentration at which the rate is half of its maximum. Take `CC(C)[C@H](NC1(CO)O[C@H](CO)[C@@H](O)[C@@H]1O)C(=O)N[C@@H](Cc1c[nH]cn1)C(=O)O` (some centres unmarked) [f-VH, fructosyl valyl histidine]: the Michaelis-Menten constant (Km) in assay [1] is 1200 µM. In assay [2], the “absorbance at 550 nm against substrate concentration” value was “increase in accordance with the increase in concentration”. For the same molecule, the “Absorbance at 700 nm” value in assay [3] stood at 735 mAbs.
Turning to “f-VHL: N-terminal-valine fructosylated peptide having an amino acid sequence represented by SEQ ID NO: 2; fructosyl tripeptide (fructosyl-Val-His-Leu)”, the “peak attributed to f-VHL (capillary electrophoresis)” value in assay [4] is “does not exist”. For the same molecule, in assay [3], the “Absorbance at 700 nm” value is 570 mAbs.
For “f-VHLT: N-terminal-valine fructosylated tetrapeptide substrate (SEQ ID NO: 3) (fructosyl-VHLT)”, the “Absorbance at 700 nm” value in assay [3] stood at 558 mAbs.
Still for that read-out and setting: the same measure for “f-VHLTP: N-terminal-valine fructosylated pentapeptide substrate (SEQ ID NO: 4) (fructosyl-VHLTP)”: 198 mAbs; for “f-VHLTPE: N-terminal-valine fructosylated hexapeptide substrate (SEQ ID NO: 5) (fructosyl-VHLTPE)”: 223 mAbs.
